# Laboratory results from US9884086B2, “Administration method for anticancer drugs” (Dong-A University Research Foundation for Industry—Academy …, priority 2014, dated 2018).
# Experiments:
# [1] = i.p. injection; cited from earlier work
# WT MEFs cells = test: removal of Platinum-GpG adducts after cisplatin in forskolin-synchronized cells (immunoslot blotting); assay type: cell-based, mouse; settings: cisplatin given 12 hours vs 24 hours after forskolin treatment
# Description: For cell culture, 1 ml of 10% (vol/vol) fetal bovine serum (FBS, Hyclone Co.) was added to 10 ml of Dulbecco's modified Eagle's medium (DMEM), followed by adding 100 μl of 1% (vol/vol) penicillin-streptomycin thereto. Then, NIH3T3 cells, wild-type mouse embryo fibroblasts (WT MEFs), and mouse embryo fibroblasts free from cryptochrome 1 (Cry1) and cryptochrome 2(Cry2) (Cry^DKO MEFs), respectively, were cultured in the above prepared culture medium. For bio-cycle synchronization, fused cells were further cultured for additional three (3) days after adding […] forskolin to the above medium. After separating genomic DNA from MEFs cells using QIAamp DNA Mini kit (Qiagen), […] of genomic DNA was moved to a nitrocellulose membrane by a BioDot SF Microfiltration apparatus (BioRad). The genomic DNA was heated at 80° C. for 2 hours under vacuum to be bound to the nitrocellulose membrane. Using a mono-antibody specifically recognizing Platinum-GpG adducts (Oncolyze), an amount of DNA damaged by cisplatin was relatively measured. Then, it may be identified whether DNA bound to the nitrocellulose membrane is quantified on Gel-doc after staining the DNA with Sybr-gold as a DNA staining reagent.
# ATR pathway = ATR pathway markers in mouse liver after cisplatin injection at CT08 or CT20 (immunoblotting); assay type: in vivo
# Description: Before sacrificing C57BL/6J male mouse, the animal was placed under an environment where the daytime and nighttime were maintained for 12 hours each […], during 2 weeks. After exposing the mouse to CO2 and putting the animal to death, the liver of the mouse was cut into pieces having a size of less than 2 mm and washed with phosphate buffer saline (PBS), followed by freezing the same in liquid nitrogen. The frozen liver piece was pulverized using a ceramic mortar and pestle under liquid nitrogen to prepare a whole cell fusion. An extract of cytoplasm and nucleus protoplasm as well as the whole cell fusion were prepared. A chromatin-rich part could be obtained by treating 10-U DNase I (Promega) and 100-U micrococcal nuclease at 30° C. for 30 minutes and from the nucleus protoplasm through extraction using fillets. Each part was analyzed by SDS-PAGE and both of Ponceau S staining and immunoblotting. According to typical immunoblotting orders, amounts of proteins were determined using the above parts. For quantification of the immunoblotting, ImageQuant 5.2 software (Molecular Dynamics) was used. Antibodies used in the experiments were as follows: GAPDH, p-Chk1 5345, p53, p-p53 S15 (Cell Signaling Technology), ATR, RPA70 (Replication Protein A), Chk1, Actin (Santa Cruz Biotechnology), Clock, Cry1, Cry2, p-MCM2 5108, Tim (Timeless), Tipin (Bethyl Laboratory), histone H3 (Millipore), Per2 (BD Biosciences) and platinum GpG (Oncolyze). Tim and Cry1, Tim protein complexes were precipitated using protein A/G-coupled sepharose (Sigma) collected beforehand as well as an anti-Tim antibody. In order to detect Cry1 precipitated together with Tim, immunoblotting was implemented. In the present disclosure, CT refers to a time having passed from a time period when the bio-cyclic rhythm was induced. For instance, CT08 means 8 hours after the induction of the bio-cyclic rhythm, and CT20 means 20 hours after the induction of the bio-cyclic rhythm. […]
# ATR = test: phosphorylation of p53 and Chk1 (proxy marker of ATR) after UV radiation in forskolin-synchronized cells; assay type: cell-based, mouse; settings: NIH3T3 cells
# Description: (§1) For cell culture, 1 ml of 10% (vol/vol) fetal bovine serum (FBS, Hyclone Co.) was added to 10 ml of Dulbecco's modified Eagle's medium (DMEM), followed by adding 100 μl of 1% (vol/vol) penicillin-streptomycin thereto. Then, NIH3T3 cells, wild-type mouse embryo fibroblasts (WT MEFs), and mouse embryo fibroblasts free from cryptochrome 1 (Cry1) and cryptochrome 2(Cry2) (Cry^DKO MEFs), respectively, were cultured in the above prepared culture medium. For bio-cycle synchronization, fused cells were further cultured for additional three (3) days after adding […] forskolin to the above medium. For UV radiation, using a germicidal lamp (GE) mainly emitting UV-C beam, UV light was emitted to the fused cells by 5 J/m^2. Then, a fluorescence rate of the incident beam was measured using a UV-C sensor. An extract of cytoplasm and nucleus protoplasm as well as the whole cell fusion were prepared. A chromatin-rich part could be obtained by treating 10-U DNase I (Promega) and 100-U micrococcal nuclease at 30° C. for 30 minutes and from the nucleus protoplasm through extraction using fillets. Each part was analyzed by SDS-PAGE and both of Ponceau S staining and immunoblotting. According to typical immunoblotting orders, amounts of proteins were determined using the above parts. For quantification of the immunoblotting, ImageQuant 5.2 software (Molecular Dynamics) was used. […]
# cryptochrome 1 (Cry1) = test: Cry1 expression over time after forskolin bio-cycle synchronization in WT MEFs (immunoblotting); assay type: cell-based, mouse
# Description: as §1, with “medium.” for “medium. For UV radiation, using a germicidal lamp (GE) mainly emitting UV-C beam, UV light was emitted to the fused cells by 5 J/m^2. Then, a fluorescence rate of the incident beam was measured using a UV-C sensor.”
Compound,time until cisplatin reaches the liver [1],removal rate of Platinum-GpG (WT MEFs cells),"accumulation of replicated protein A (RPA70) in chromatin (ATR pathway; liver chromatin, after cisplatin injection at CT20)","p-MCM2 signal, mouse at CT20 as compared to the mouse at CT08 (ATR pathway; mouse liver, at 8 hours or later after the cisplatin injection) [times]","extents of expression of p-Chk1 and p-p53 (ATR pathway; mouse liver, cisplatin injected at CT08 and CT20)","extent of phosphorylation of p53 and Chk1, cell 12 hours after forskolin treatment as compared to cell 24 hours after (ATR) [times]",time of maximum expression of cryptochrome 1 (Cry1) after forskolin treatment (cryptochrome 1 (Cry1)) [h],time of minimum expression of cryptochrome 1 (Cry1) after forskolin treatment (cryptochrome 1 (Cry1)) [h]
N.N.[Cl][Pt][Cl] [cisplatin],about 2 hours,higher at 12 hours after forskolin treatment,accumulation of replicated protein A was identified in chromatin,≥ 2,insignificant,,,
C=C[C@@]1(C)CC(=O)[C@]2(O)[C@@]3(C)[C@@H](O)CCC(C)(C)[C@@H]3[C@H](O)[C@H](OC(C)=O)[C@@]2(C)O1 [forskolin],,,,,,2 to 3,12,24
